Reference: patent publication US3984562A, “Substituted benzodiazepines and method of use” (American Cyanamid Company, priority 1975, dated 1976)
Where two headings read alike, the source gives them in different places.

Assay: protection from convulsions resulting from the administration of pentylenetetrazole (anti-anxiety test, rats, oral)
Assay type: in vivo
Conditions: Rattus norvegicus, read-out: Median Effective Oral Dose ED50
Protocol: The anti-anxiety properties of these compounds have been established in a test which indicates anxiolytic activity by a measure of protection from convulsions resulting from the administration of pentylenetetrazole. Graded dose levels of the compounds are administered orally, in a 2% starch vehicle, to groups of at least 5 rats. At the estimated time of peak effect, the rats are treated intravenously with pentylenetetrazole at a dose of 21 to 23 mg./kg. of body weight. This dose is estimated to cause clonic seizures in 99% of unprotected rats. The effective dose of the test compound for protection of 50% of the animals (ED50) is calculated by the method of D. H. Finney in Statistical Methods in Biological Assay, Second Edition, Hafner Publishing Co., New York, 1964, pp. 456-457. The results of this test on representative compounds of the present invention are given in the following table in comparison with meprobromate which is tested in the same manner. It has been reported [R. T. Hill and D. H. Tedeschi, "Animal Testing and Screening Procedures in Evaluating Psychotropic Drugs" in An Introduction to Psychopharmacology, Eds. R. R. Rech and K. E. Moore, Raven Press, New York, pp. 237-288 (1971)] that there is a high degree of correlation between antagonism of pentylenetetrazole seizures in rats and anti-anxiety effects in higher warm-blooded animals.

[1] = oral, 2% starch vehicle, rats (at least 5 per group), pentylenetetrazole 21 to 23 mg./kg. intravenously at estimated time of peak effect, protection of 50% of animals

Row | SMILES | ED50 (po) [mg/kg] | ED50 [1] [mg/kg]
1 | CCCC(C)(COC(N)=O)COC(N)=O [meprobromate, reference compound] | 22 | –
2 | O=C(CCN1CCCC1)N1CC2CCCN2Cc2cc(Cl)ccc21 (single isomer, unassigned; (-)) [(-)-7-Chloro-2,3,5,10,11,11a-hexahydro-10-[3-(1-pyrrolidinyl)-propionyl]-1H-pyrrolo[2,1-c][1,4]benzodiazepine] | – | 7
3 | O=C(CCN1CCCCC1)N1CC2CCCN2Cc2ccccc21 (single isomer, unassigned; (-)) [(-)-2,3,5,10,11,11a-Hexahydro-10-(3-piperidinopropionyl)-1H-pyrrolo[2,1-c][1,4]benzodiazepine] | – | 16
4 | O=C(CCN1CCCC1)N1CC2CCCN2Cc2ccccc21 (single isomer, unassigned; (-)) [(-)-2,3,5,10,11,11a-Hexahydro-10-[3-(1-pyrrolidinyl)-propionyl]-1H-pyrrolo[2,1-c] [1,4]benzodiazepine] | – | 57
